Assay results taken from ChEMBL document CHEMBL6177923, “Novel rhodanine-thiazole hybrids as potential antidiabetic agents: a structure-based drug design approach” (RSC Med Chem, 2025).
Values belong to the compound of their own block, whether it stands above or below them. Activity calls are given as the source filed them. The calls are words filed in the database; no cut-off is given here.

Columns and labels:
[1] = tested on: L929; experiment: Cytotoxicity against mouse L929 cells by MTT assay; format: toxicity, cell-based
[2] = target: Lysosomal alpha-glucosidase (Homo sapiens, UniProt P10253); experiment: Inhibition of human lysosomal alpha-glucosidase preincubated for 10 mins followed by p-nitrophenyl-alpha-D glucopyranoside addition and measured after 30 mins by absorbance based analysis
[3] = tested on: HepG2; experiment: Upregulation of PPAR-gamma expression in human HepG2 cells by RayBio PPAR-gamma TF activity assay; format: functional, cell-based; conditions: dose 6.25-100 µM

inhibition ([2]; time 40.0 min): inactive
Compound: Cc1ccc(-c2csc(N/N=C/c3ccc(/C=C4\SC(=S)N(CC(=O)O)C4=O)cc3)n2)cc1
Activity [1]: Non-toxic

IC50 [2]: 24.2 µM
Compound: O=C(O)CN1C(=O)/C(=C/c2ccc(/C=N/Nc3nc(-c4ccc(Br)cc4)cs3)cc2)SC1=S
Activity [1]: Non-toxic

IC50 [2]: 106 µM
Compound: Cc1ccc(-c2csc(N/N=C/c3ccc(/C=C4\SC(=S)NC4=O)cc3)n2)cc1
Activity [1]: Non-toxic

IC50 [2]: 55.2 µM
Compound: O=C1NC(=S)S/C1=C\c1ccc(/C=N/Nc2nc(-c3ccccc3)cs2)cc1
Activity [1]: Non-toxic

IC50 [2]: 46 µM
Compound: COc1ccc(-c2csc(N/N=C/c3ccc(/C=C4\SC(=S)NC4=O)cc3)n2)cc1
Activity [1]: Non-toxic

IC50 [2]: 148 µM
Compound: O=C1NC(=S)S/C1=C\c1ccc(/C=N/Nc2nc(-c3ccc(F)cc3)cs2)cc1
Activity [1]: Non-toxic

IC50 [2]: 52 µM
Compound: O=C(O)CN1C(=O)/C(=C/c2ccc(/C=N/Nc3nc(-c4ccc(F)cc4)cs3)cc2)SC1=S
Activity [1]: Non-toxic

Further lines, the compound ahead of its results:

Compound: O=C(O)CN1C(=O)/C(=C/c2ccc(/C=N/Nc3nc(-c4ccccc4)cs3)cc2)SC1=S
Activity [1]: Non-toxic
IC50 [2]: 29.1 µM

Compound: O=C(O)CN1C(=O)/C(=C/c2ccc(/C=N/Nc3nc(-c4ccc(Cl)cc4)cs3)cc2)SC1=S
Activity [1]: Non-toxic
IC50 [2]: 62.1 µM

Compound: O=C1NC(=S)S/C1=C\c1ccc(/C=N/Nc2nc(-c3ccc(Cl)cc3)cs2)cc1
Activity [1]: Non-toxic
Activity [3]: Dose-dependent-effect
IC50 [2]: 33.2 µM

Compound: COc1ccc(-c2csc(N/N=C/c3ccc(/C=C4\SC(=S)N(CC(=O)O)C4=O)cc3)n2)cc1
Activity [1]: Non-toxic
IC50 [2]: 63.2 µM

Compound: O=C1NC(=S)S/C1=C\c1ccc(/C=N/Nc2nc(-c3ccc(Br)cc3)cs2)cc1
Activity [1]: Non-toxic
Activity [3]: Dose-dependent-effect
IC50 [2]: 32.2 µM
